The results in this text go back to patent US20040167103A1, “Haloacetamide and azide substituted compounds and methods of use thereof” (priority 2003, published 2004).

What is called Ki is the dissociation constant of the complex between target and ligand, obtained from inhibition or displacement. Higher therefore signals lower affinity. What is called Kd is the constant that tells how readily two partners part at equilibrium. As usually defined, the IC50 is the concentration at which inhibition is half-maximal. High values mean weaker potency in that assay, low ones greater potency in that assay.

The subject of experiment [1] is LNCaP cells. Nature of the experiment: Cell growth inhibition (sulforhodamine B assay), LNCaP. The experiment is classed as cell-based, human. As to conditions: for Sensitivity of LNCaP cells compared with other cell lines: LNCaP the only androgen receptor expressing cell line tested; for IC50: Homo sapiens, LNCaP, SRB assay. As to the method:
(§1) Prostate cancer cell lines were obtained from ATCC. All cells were grown in RPMI-1640 medium containing 2 mM L-glutamine supplemented with 10% fetal bovine serum (FBS) and maintained in a 5% CO2/95% air humidified atmosphere at 37° C.
Cells were plated on 96-well plates and incubated with drug-containing culture medium (200 μL/well) for 4 (DU 145, PC-3, PPC-1, and TSU) or 6 (LNCaP) days. Medium was replaced with freshly prepared batches every other day during the incubation. At the end of drug treatment, an aliquot of 50 μL of cold (4° C.) trichloroacetic acid (TCA, 50%) was gently layered on the top of growth medium in each well to make a final TCA concentration of 10%. The mixtures were incubated at 4° C. for 1 hour, and then washed 5 times with tap water to remove TCA, growth medium, low-molecular-weight metabolites, and serum proteins. The plates were air dried overnight. Next, fixed cells were stained with 50 μL of SRB solution (0.4%, wt/vol) for 10 minutes. After staining, SRB solution was decanted, and plates were quickly rinsed 5 times with 1% acetic acid to remove unbound dye and air dried overnight. The cellular protein-bound SRB was then dissolved with 200 μL unbuffered Tris base (10 mM, pH 10.5) for 30 minutes on a rocking platform shaker, and absorbance at 540 nm was measured by a plate reader.
Percentage of cell survival was calculated by absorbance at 540 nm in testing wells divided by absorbance in negative control wells (medium without the test compound). Percentages of cell survival versus drug concentrations were plotted and the concentration of drug that inhibited cell growth by 50% (IC50) was determined by nonlinear regression using WinNonlin (Pharsight Corporation, Mountain View, Calif.).
METHODS: LNCaP, DU145, PC-3, TSU, and PPC-1 cells were cultured in 96-well plates and treated with increasing concentrations of the compound of interest for 4 days. Cell survival was determined by the sulforhodamine B assay and was plotted as a percentage of control (drug-free wells) versus drug concentration. The concentration of drug that inhibited cell growth by 50% (IC50) was determined by non-linear regression. Known anticancer drugs were used as cytotoxic positive controls.
On the technique in general: In SRB staining, fixed cells bind dye roughly in proportion to their protein.

The target in experiment [2] is T1, cytosolic AR prepared from rat ventral prostates (Rattus norvegicus, UniProt P15207).
T1 construct: cytosolic AR prepared from rat ventral prostates; from tissue; host or cells: rat ventral prostate cytosol
T1 sequence (P15207 1-902): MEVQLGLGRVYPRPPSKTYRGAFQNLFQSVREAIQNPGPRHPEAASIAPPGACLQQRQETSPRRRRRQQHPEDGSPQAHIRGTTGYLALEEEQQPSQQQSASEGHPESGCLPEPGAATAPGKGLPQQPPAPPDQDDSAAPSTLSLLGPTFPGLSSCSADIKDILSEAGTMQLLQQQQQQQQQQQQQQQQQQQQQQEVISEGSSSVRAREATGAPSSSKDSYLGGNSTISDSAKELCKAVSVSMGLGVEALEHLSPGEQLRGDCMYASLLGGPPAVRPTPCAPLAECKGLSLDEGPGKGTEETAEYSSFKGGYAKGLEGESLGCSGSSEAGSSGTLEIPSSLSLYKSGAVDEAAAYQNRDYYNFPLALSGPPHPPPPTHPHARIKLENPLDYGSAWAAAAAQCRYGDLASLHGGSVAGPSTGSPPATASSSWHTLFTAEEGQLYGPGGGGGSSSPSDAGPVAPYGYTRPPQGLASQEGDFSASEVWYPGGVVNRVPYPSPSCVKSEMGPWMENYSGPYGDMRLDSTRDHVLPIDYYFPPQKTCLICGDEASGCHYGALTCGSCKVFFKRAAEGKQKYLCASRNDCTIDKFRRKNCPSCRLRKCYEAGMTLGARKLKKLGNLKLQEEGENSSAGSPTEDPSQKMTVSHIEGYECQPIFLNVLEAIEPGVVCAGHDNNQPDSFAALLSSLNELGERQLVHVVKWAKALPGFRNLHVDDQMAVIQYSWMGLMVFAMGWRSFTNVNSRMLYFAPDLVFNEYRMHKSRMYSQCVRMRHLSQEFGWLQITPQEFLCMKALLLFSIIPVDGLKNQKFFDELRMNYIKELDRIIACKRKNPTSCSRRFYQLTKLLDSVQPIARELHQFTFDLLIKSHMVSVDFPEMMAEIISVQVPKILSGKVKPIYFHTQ
The experiment in a line: Androgen receptor radioligand competitive binding assay (3H-mibolerone). The procedure: The AR binding affinity of test compounds was determined by a radioligand competitive binding assay with cytosolic AR prepared from rat ventral prostates. […] After incubation, the protein-bound radioactivity was separated from free radioactivity by HAP precipitation. The bound radioactivity was then extracted from HAP by ethanol, and counted in a Beckman LS6800 liquid scintillation counter (Beckman Instruments Inc., Palo Alto, Calif.). Nonspecific binding was determined separately by including 1,000 nM of unlabeled MIB in the incubate. The binding data was fitted to the equation B=B0*[1-C/(IC50+C)] using WinNonlin.

In experiment [3] the test system is prostate cancer cell lines DU 145, PC-3, TSU, PPC-1 and LNCaP. The experiment in a line: Cell growth inhibition (sulforhodamine B assay), five prostate cancer cell lines together. It is filed as cell-based, human. The settings on record: statement in words. As to the method: as §1
(§2) Cells were plated on 96-well plates and incubated with drug-containing culture medium (200 μL/well) for 4 (DU 145, PC-3, PPC-1, and TSU) or 6 (LNCaP) days. Medium was replaced with freshly prepared batches every other day during the incubation. At the end of drug treatment, an aliquot of 50 μL of cold (4° C.) trichloroacetic acid (TCA, 50%) was gently layered on the top of growth medium in each well to make a final TCA concentration of 10%. […] The cellular protein-bound SRB was then dissolved with 200 μL unbuffered Tris base (10 mM, pH 10.5) for 30 minutes on a rocking platform shaker, and absorbance at 540 nm was measured by a plate reader.
(§3) Percentage of cell survival was calculated by absorbance at 540 nm in testing wells divided by absorbance in negative control wells (medium without the test compound). […]
(§4) METHODS: LNCaP, DU145, PC-3, TSU, and PPC-1 cells were cultured in 96-well plates and treated with increasing concentrations of the compound of interest for 4 days. Cell survival was determined by the sulforhodamine B assay and was plotted as a percentage of control (drug-free wells) versus drug concentration. […]

Experiment [4] deals with LNCaP cells. The experiment in a line: Growth curve (trypan blue cell count, 120 h), LNCaP compared with other lines. It is filed as cell-based, human. As to the method:
METHODS: Cells were plated at 5-10×10^4 cells/well in five 6-well plates and incubated at 37° C., 5% CO2 for 24 h to allow the cells sufficient time to attach and be in log phase growth at the start of the experiment. The media was aspirated from four of the plates and replaced with media containing vehicle control (DMSO) or drug dissolved in DMSO. The total volume of DMSO/drug added to each well was equal to 0.1% of the media volume in each well. LNCaP, PC-3, MCF-7, and CV-1 cells were treated with vehicle control, and increasing concentrations of Compound 1 and Compound 2 (0.01, 0.05, 0.1, 0.5, 1.0, 5.0, and 10.0 μM). Three wells were treated with the same concentration of the drugs or DMSO for each treatment condition listed above. The cells from the remaining 6-well plate were collected and counted to determine plating efficiency. The 6-well plates containing DMSO/drug were incubated for 120 h at 37° C., 5% CO2. After 120 h, the media from each well was collected along with trypsinized cells and centrifuged at 150×g for 4 min. The cells were resuspended in 1 mL of media, from which 90 μl was taken and combined with 10 μl trypan blue for counting on a hemacytometer.

In experiment [5] the test system is LNCaP cells. Nature of the experiment: TUNEL assay (apoptosis, DNA fragmentation). The experiment is classed as cell-based, human. The settings on record: LNCaP cells exposed for 24 hours, relative to 0.1% DMSO vehicle control. As to the method:
METHODS: DNA fragmentation of apoptotic cells was monitored by the TUNEL assay as described by the supplier. Briefly, LNCaP cells were plated at 2×10^5 cells/well in 2-well chamber slides and incubated at 37° C., 5% CO2 for 24 h to allow the cells sufficient time to attach and be in log phase growth at the start of the experiment. The media was aspirated and replaced with media containing vehicle control (DMSO) or drug dissolved in DMSO. The total volume of DMSO/drug added to each well was equal to 0.1% of the media volume in each well. LNCaP cells were treated with vehicle control, and increasing concentrations of Compound 1 and Compound 2 (0.1, 1.0, and 10.0 μM) for 24-48 h. Two wells were treated with the same concentration of the drugs or DMSO for each treatment condition listed above. The media was collected along with the trypsinized cells and centrifuged at 150×g for 4 min. […] Green and red fluorescence emissions were observed microscopically using 520 nm and >620 nm filters, respectively.
RESULTS: The TUNEL assay is used to determine whether cells are undergoing apoptosis (cell death mechanism) as a result of drug treatment. […] TUNEL assay incorporates a dye that labels the 3′ ends of such DNA fragments which are then visualized by fluorescence. […]

Experiment [6] relates to DU 145 cells. Nature of the experiment: Cell growth inhibition (sulforhodamine B assay), DU145. The experiment is classed as cell-based. The settings on record: Homo sapiens, DU-145, 96 h, SRB assay, 4 days treatment. As to the method:
as §1, §2, §3, §4

Experiment [7] relates to PC-3 cells. Nature of the experiment: Cell growth inhibition (sulforhodamine B assay), PC-3. It is filed as cell-based. The settings on record: Homo sapiens, PC-3, 96 h, SRB assay, 4 days treatment. As to the method:
as §1, §2, §3, §4

Experiment [8] relates to TSU cells. Nature of the experiment: Cell growth inhibition (sulforhodamine B assay), TSU. It is filed as cell-based. The settings on record: Homo sapiens, 96 h, SRB assay, 4 days treatment. As to the method: as §1, §2, §3, §4
Experiment [9] has as its system PPC-1 cells. The experiment in a line: Cell growth inhibition (sulforhodamine B assay), PPC-1. It is filed as cell-based. As to conditions: Homo sapiens, PPC-1, 96 h, SRB assay, 4 days treatment. The procedure:
as §1, §2, §3, §4

`C[C@](O)(COc1ccc(NC(=O)CBr)cc1)C(=O)Nc1ccc([N+](=O)[O-])c(C(F)(F)F)c1` [Compound 1]: the “Sensitivity of LNCaP cells compared with other cell lines” value in [1] is reported as “not more sensitive”. The same molecule had a Ki in experiment [2] of 13.9 ± 1.4 nM. Also, the “IC50 values in inhibiting the growth of all five prostate cancer cell lines” value in experiment [3] is recorded as “low micro-molar range”. In addition, the “Growth inhibitory activity against various cancer cell lines” value in experiment [4] (LNCaP versus PC-3, MCF-7 and CV-1 cells, 0.01-10.0 μM) is “non-selective growth inhibitory activity”. Also, in experiment [5], the “Apoptosis, DNA fragmentation (green fluorescence)” value was “exhibit green fluorescence”.
Regarding `C[C@](O)(COc1ccc(NC(=O)CCl)cc1)C(=O)Nc1ccc([N+](=O)[O-])c(C(F)(F)F)c1` [Compound 2], the “Sensitivity of LNCaP cells compared with other cell lines” value in experiment [1] is recorded as “not more sensitive”. In experiment [2], affinity was put at a Ki of 1.9 ± 0.3 nM. In addition, in experiment [3], the “IC50 values in inhibiting the growth of all five prostate cancer cell lines” value is given as “low micro-molar range”. Also, the “Fold sensitivity of LNCaP cells over PC-3 or CV-1 cells” value in experiment [4] (growth curve) is reported as “approximately 10 fold”. Also, the “Apoptosis, DNA fragmentation (green fluorescence)” value in [5] was “similar”.
In the case of `C[C@@H]1CC2=CC(=O)CC[C@@H]2[C@H]2CC[C@@]3(C)[C@@H](CC[C@]3(C)O)[C@@H]21` [Compound 3H-MIB, 3H-mibolerone], the Kd in experiment [2] (determined in preliminary experiments, read-out: Kd, equilibrium dissociation constant of 3H-MIB) was 0.19 ± 0.01 nM.
For the molecule `N[C@@H](Cc1ccc(N(CCCl)CCCl)cc1)C(=O)O` [Melphalan], the IC50 in [6] (Melphalan line, unit nM) amounted to 31 nM; in experiment [7] (Melphalan line, unit nM), 30.4 ± 3.1 nM; in experiment [8] (Melphalan line, unit nM), 4 ± 0.2 nM; in experiment [9] (Melphalan line, unit nM) it was 16.2 nM; in [1] (4 or 6 days treatment, Melphalan line, unit nM) it was 10.3 nM.
Turning to `C[C@@](O)(CBr)C(=O)Nc1ccc([N+](=O)[O-])c(C(F)(F)F)c1` [S-NTBA], the IC50 worked out at 4700 ± 300 nM in experiment [6]; 3100 ± 500 nM in experiment [7]; 3500 ± 200 nM in experiment [8]; 2200 ± 200 nM in experiment [9]; 1300 ± 200 nM in experiment [1] (4 days or 6 days treatment).
